{
  "source": "patent US11098032B2",
  "about": "“Pyran dervatives as CYP11A1 (cytochrome P450 monooxygenase 11A1) inhibitors” (ORION CORPORATION, priority 2016, dated 2021)",
  "note": "pIC50: −log10 of the molar value.",
  "data": [
    {"target": "T1, CYP11A1 (Homo sapiens, UniProt P05108)", "T1 construct": "human H295R adrenocortical carcinoma cell line was used as source of enzyme; endogenous in cells; host or cells: H295R human adrenocortical carcinoma cells", "T1 sequence (P05108 40-521)": "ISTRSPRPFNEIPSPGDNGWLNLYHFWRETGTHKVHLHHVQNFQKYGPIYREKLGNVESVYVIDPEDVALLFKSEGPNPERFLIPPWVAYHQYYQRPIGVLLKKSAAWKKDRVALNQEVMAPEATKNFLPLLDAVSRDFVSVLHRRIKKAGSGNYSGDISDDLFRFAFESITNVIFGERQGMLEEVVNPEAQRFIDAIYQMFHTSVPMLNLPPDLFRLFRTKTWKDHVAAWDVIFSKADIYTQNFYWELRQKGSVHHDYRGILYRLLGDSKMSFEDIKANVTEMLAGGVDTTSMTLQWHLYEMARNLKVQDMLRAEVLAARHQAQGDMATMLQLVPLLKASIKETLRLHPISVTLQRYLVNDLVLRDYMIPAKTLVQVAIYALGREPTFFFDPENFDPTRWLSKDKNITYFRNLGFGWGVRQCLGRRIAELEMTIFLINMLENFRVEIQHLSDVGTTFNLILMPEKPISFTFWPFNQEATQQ", "test": "CYP11A1 inhibition: modified isocaproic acid release assay (IARA) in H295R cells", "format": "cell-based", "conditions": "human H295R adrenocortical carcinoma cells treated three days, 3 nM [24,25-3H]-labelled cholesterol, 1% DMSO, 10 concentrations in duplicates; read-out: IC50 of the test compounds on CYP11A1 inhibition", "experimental": "The ability of the test compounds to inhibit conversion of cholesterole to pregnenolone and isocaproic acid was measured by modification of isocaproic acid release assay (IARA) described by Ruangwises et. al. (Biology of Reproduction 1991; 45(1):143-50) except that human H295R adrenocortical carcinoma cell line was used as source of enzyme and extraction was done with dextran-coated charcoal suspension (Isomaa, V. et al., Endocrinology 1982; 111(3):833-843). […] To determine the half maximal inhibitory concentration (IC50) of the test compounds on CYP11A1 inhibition, the cells were treated for three days with increasing concentrations of the test compounds in the presence of 3 nM [24,25-3H]-labelled cholesterol (American Radiolabelled Chemicals). The final DMSO concentration was 1%. Cell culture medium was extracted with dextran-coated charcoal suspension and the radiolabelled isocaproic acid was determined by mixing 100 μl of supernatant fraction in 200 μl of scintillation fluid (OptiPhase SuperMix, Perkin Elmer). Radioactivity was measured using a Microbeta scintillation counter (1450 MicroBeta Trilux, Wallac). All the test compounds were studied at 10 concentrations in duplicates.", "values": [
      {"smiles": "COc1ccc2c(c1)CN(Cc1cc(=O)c(OCc3ccc(C(=O)N4CC(F)(F)C4)cc3)co1)C2", "note": "[Compound 162, 5-((4-(3,3-Difluoroazetidine-1-carbonyl)benzyl)oxy)-2-((5-methoxyisoindolin-2-yl)methyl)-4H-pyran-4-one]", "pIC50": "> 6.82"},
      {"smiles": "CS(=O)(=O)c1ccc(COc2coc(CN3Cc4ccc(F)cc4C3)cc2=O)cc1", "note": "[Compound 63, 2-((5-Fluoroisoindolin-2-yl)methyl)-5-((4-(methylsulfonyl)benzyl)oxy)-4H-pyran-4-one]", "pIC50": "6.52 to 6.82"},
      {"smiles": "O=C(c1ccc(COc2coc(CN3Cc4ccc(Br)cc4C3)cc2=O)cc1)N1CCCC1", "note": "[Compound 130, 2-((5-Bromoisoindolin-2-yl)methyl)-5-((4-(pyrrolidine-1-carbonyl)benzyl)oxy)-4H-pyran-4-one]", "pIC50": "> 6.82"},
      {"smiles": "CCS(=N)(=O)c1ccc(COc2coc(CN3Cc4ccc([N+](=O)[O-])cc4C3)cc2=O)cc1", "note": "(centres unmarked) [Compound 168, 5-((4-(Ethylsulfonimidoyl)benzyl)oxy)-2-((5-nitroisoindolin-2-yl)methyl)-4H-pyran-4-one]", "pIC50": "6.52 to 6.82"},
      {"smiles": "CNC(=O)C1CCC(COc2coc(CN3Cc4ccccc4C3)cc2=O)CC1", "note": "(centres unmarked) [Compound 227, 4-(((6-(Isoindolin-2-ylmethyl)-4-oxo-4H-pyran-3-yl)oxy)methyl)-N-methylcyclo-hexanecarboxamide]", "pIC50": "6.52 to 6.82"},
      {"smiles": "CS(=O)(=O)N1CCC(COc2coc(CN3CCc4ccccc4C3)cc2=O)CC1", "note": "[Compound 179, 2-((3,4-Dihydroisoquinolin-2(1H)-yl)methyl)-5-((1-(methylsulfonyl)piperidin-4-yl)methoxy)-4H-pyran-4-one]", "pIC50": "5.70 to 6.52"},
      {"smiles": "CC(C)(O)c1ccc(COc2coc(CN3Cc4cccc(F)c4C3)cc2=O)cc1", "note": "[Compound 33, 2-((4-Fluoroisoindolin-2-yl)methyl)-5-((4-(2-hydroxypropan-2-yl)benzyl)oxy)-4H-pyran-4-one]", "pIC50": "5.70 to 6.52"},
      {"smiles": "CC(=O)N=S1(=O)CCC(COc2coc(CN3Cc4ccccc4C3)cc2=O)CC1", "note": "(centres unmarked) [Compound 243, N-(4-(((6-(Isoindolin-2-ylmethyl)-4-oxo-4H-pyran-3-yl)oxy)methyl)-1-oxido-tetrahydro-2H-1λ^6-thiopyran-1-ylidene)acetamide]", "pIC50": "5.70 to 6.52"},
      {"smiles": "CN(C)C(=O)c1cc(F)c(COc2coc(CN3Cc4ccccc4C3)cc2=O)c(F)c1", "note": "[Compound 172, 3,5-Difluoro-4-(((6-(isoindolin-2-ylmethyl)-4-oxo-4H-pyran-3-yl)oxy)methyl)-N,N-dimethylbenzamide]", "pIC50": "> 6.82"},
      {"smiles": "O=c1cc(CN2Cc3ccccc3C2)occ1OCCCc1ccncc1", "note": "[Compound 214, 2-(Isoindolin-2-ylmethyl)-5-(3-(pyridin-4-yl)propoxy)-4H-pyran-4-one]", "pIC50": "6.52 to 6.82"},
      {"smiles": "N#Cc1ccc(COc2coc(CN3CCc4ccccc4C3)cc2=O)cc1Cl", "note": "[Compound 118, 2-Chloro-4-(((6-((3,4-dihydroisoquinolin-2(1H)-yl)methyl)-4-oxo-4H-pyran-3-yl)oxy)methyl)benzonitrile]", "pIC50": "5.70 to 6.52"},
      {"smiles": "CN(C)C(=O)/C=C/c1ccc(COc2coc(CN3Cc4ccccc4C3)cc2=O)cc1", "note": "[Compound 146, (E)-3-(4-(((6-(Isoindolin-2-ylmethyl)-4-oxo-4H-pyran-3-yl)oxy)methyl)phenyl)-N,N-dimethylacrylamide]", "pIC50": "> 6.82"},
      {"smiles": "CN(C)C(=O)c1ccc(COc2coc(CN3Cc4ccc(Cl)cc4C3)cc2=O)cc1", "note": "[Compound 137, 4-(((6-((5-Chloroisoindolin-2-yl)methyl)-4-oxo-4H-pyran-3-yl)oxy)methyl)-N,N-dimethylbenzamide]", "pIC50": "> 6.82"},
      {"smiles": "CC(=O)N1CCC(COc2coc(CN3Cc4ccccc4C3)cc2=O)CC1", "note": "[Compound 252, 5-((1-Acetylpiperidin-4-yl)methoxy)-2-(isoindolin-2-ylmethyl)-4H-pyran-4-one]", "pIC50": "6.52 to 6.82"},
      {"smiles": "C[C@H]1c2ccccc2CN1Cc1cc(=O)c(OCc2ccc(C(=O)N(C)C)cc2)co1", "note": "[Compound 132, (S)—N,N-Dimethyl-4-(((6-((1-methylisoindolin-2-yl)methyl)-4-oxo-4H-pyran-3-yl)oxy)methyl)benzamide]", "pIC50": "5.70 to 6.52"},
      {"smiles": "N#Cc1ccc(COc2coc(CN3CCc4ccccc4C3)cc2=O)cc1", "note": "[Compound 41, 4-(((6-((3,4-Dihydroisoquinolin-2(1H)-yl)methyl)-4-oxo-4H-pyran-3-yl)oxy)-methyl)benzonitrile]", "pIC50": "5.70 to 6.52"},
      {"smiles": "C=Cc1ccc(COc2coc(CN3Cc4ccccc4C3)cc2=O)cc1", "note": "[Compound 144, 2-(Isoindolin-2-ylmethyl)-5-((4-vinylbenzyl)oxy)-4H-pyran-4-one]", "pIC50": "5.70 to 6.52"},
      {"smiles": "Cc1ccc(S(=O)(=O)N=S(C)(=O)C2CCC(COc3coc(CN4Cc5ccccc5C4)cc3=O)CC2)cc1", "note": "(centres unmarked) [Compound 239, N-{[4-({[6-(1,3-Dihydro-2H-isoindol-2-ylmethyl)-4-oxo-4H-pyran-3-yl]oxy}-methyl)cyclohexyl](methyl)oxido-λ^6-sulfanylidene}-4-methylbenzenesulfonamide]", "pIC50": "6.52 to 6.82"},
      {"smiles": "NC(=O)c1ccc(COc2coc(CN3Cc4ccccc4C3)cc2=O)c(F)c1", "note": "[Compound 56, 3-Fluoro-4-(((6-(isoindolin-2-ylmethyl)-4-oxo-4H-pyran-3-yl)oxy)methyl)-benzamide]", "pIC50": "6.52 to 6.82"},
      {"smiles": "O=c1cc(CN2Cc3ccccc3C2)occ1OCc1ccc(-c2ccccc2)cc1", "note": "[Compound 164, 5-([1,1′-Biphenyl]-4-ylmethoxy)-2-(isoindolin-2-ylmethyl)-4H-pyran-4-one]", "pIC50": "6.52 to 6.82"},
      {"smiles": "CCC(=O)N1CCC(COc2coc(CN3Cc4ccc(C(F)(F)F)cc4C3)cc2=O)CC1", "note": "[Compound 244a, 5-((1-Propionylpiperidin-4-yl)methoxy)-2-((5-(trifluoromethyl)isoindolin-2-yl)methyl)-4H-pyran-4-one]", "pIC50": "> 6.82"},
      {"smiles": "CC1(COc2coc(CN3Cc4ccccc4C3)cc2=O)CCN(S(C)(=O)=O)CC1", "note": "[Compound 191, 2-(Isoindolin-2-ylmethyl)-5-((4-methyl-1-(methylsulfonyl)piperidin-4-yl)-methoxy)-4H-pyran-4-one]", "pIC50": "6.52 to 6.82"},
      {"smiles": "CC1c2ccccc2CN1Cc1cc(=O)c(OCc2ccc(C(=O)N(C)C)cc2)co1", "note": "(centres unmarked) [Compound 77, N,N-Dimethyl-4-(((6-((1-methylisoindolin-2-yl)methyl)-4-oxo-4H-pyran-3-yl)oxy)methyl)benzamide]", "pIC50": "5.70 to 6.52"},
      {"smiles": "O=C(COc1coc(CN2Cc3ccccc3C2)cc1=O)N1CCC(Cc2ccccc2)CC1", "note": "[Compound 155, 5-(2-(4-Benzylpiperidin-1-yl)-2-oxoethoxy)-2-(isoindolin-2-ylmethyl)-4H-pyran-4-one]", "pIC50": "5.70 to 6.52"},
      {"smiles": "CN(C)S(=O)(=O)N1CCC(COc2coc(CN3Cc4ccc(F)cc4C3)cc2=O)CC1", "note": "[Compound 230, 4-(((6-((5-Fluoroisoindolin-2-yl)methyl)-4-oxo-4H-pyran-3-yl)oxy)methyl)-N,N-dimethylpiperidine-1-sulfonamide]", "pIC50": "> 6.82"},
      {"smiles": "O=c1cc(CN2Cc3ccccc3C2)occ1OCc1ccc(S(=O)(=O)N2CCOCC2)cc1", "note": "[Compound 6, 2-(Isoindolin-2-ylmethyl)-5-((4-(morpholinosulfonyl)benzyl)oxy)-4H-pyran-4-one]", "pIC50": "6.52 to 6.82"},
      {"smiles": "O=C(COc1coc(CN2Cc3ccccc3C2)cc1=O)N1CCN(c2ccc(Cl)cc2)CC1", "note": "[Compound 154, 5-(2-(4-(4-Chlorophenyl)piperazin-1-yl)-2-oxoethoxy)-2-(isoindolin-2-ylmethyl)-4H-pyran-4-one]", "pIC50": "5.70 to 6.52"},
      {"smiles": "CN(C)C(=O)c1ccc(COc2coc(CN3CCc4ccccc4C3)cc2=O)cc1", "note": "[Compound 119, 4-(((6-((3,4-Dihydroisoquinolin-2(1H)-yl)methyl)-4-oxo-4H-pyran-3-yl)oxy)-methyl)-N,N-dimethylbenzamide]", "pIC50": "5.70 to 6.52"},
      {"smiles": "COc1ccc(COc2coc(CN3Cc4ccccc4C3)cc2=O)cn1", "note": "[Compound 76, 2-(Isoindolin-2-ylmethyl)-5-((6-methoxypyridin-3-yl)methoxy)-4H-pyran-4-one]", "pIC50": "5.70 to 6.52"},
      {"smiles": "O=c1cc(CN2Cc3ccc(F)cc3C2)occ1OCC1CCN(S(=O)(=O)C2CC2)CC1", "note": "[Compound 190, 5-((1-(Cyclopropylsulfonyl)piperidin-4-yl)methoxy)-2-((5-fluoroisoindolin-2-yl)methyl)-4H-pyran-4-one]", "pIC50": "> 6.82"},
      {"smiles": "CS(=O)(=O)c1ccc(COc2coc(CN3Cc4ccccc4C3)cc2=O)c(Cl)c1", "note": "[Compound 16, 5-((2-Chloro-4-(methylsulfonyl)benzyl)oxy)-2-(isoindolin-2-ylmethyl)-4H-pyran-4-one]", "pIC50": "5.70 to 6.52"},
      {"smiles": "CC(C)S(=O)(=O)N1CCC(COc2coc(CN3Cc4ccccc4C3)cc2=O)CC1", "note": "[Compound 270, 2-(Isoindolin-2-ylmethyl)-5-((1-(isopropylsulfonyl)piperidin-4-yl)methoxy)-4H-pyran-4-one]", "pIC50": "6.52 to 6.82"}
    ]}
  ]
}
